According to US20090181975A1, “NEBIVOLOL IN THE TREATMENT OF SEXUAL DYSFUNCTION” (FOREST LABORATORIES HOLDINGS LIMITED, priority 2008, published 2009):

Columns and labels:
anesthetized rats = assay: Mean arterial pressure (MAP) and heart rate (HR) in anesthetized rats; assay type: in vivo, rat (Sprague-Dawley)
Experimental: To determine blood pressure and heart rate, Sprague-Dawley rats (250-400 g) were anesthetized with ketolar and diazepam. The right carotid artery was catheterized for constant blood pressure and heart rate measurement by means of a pressure transducer connected to a PowerLab data acquisition system (ADInstruments). The left external jugular vein was catheterized for saline or drug infusion. 3 mg/kg nebivolol (n=6) or vehicle (50% glycofurol; n=4) was administered intravenously in anesthetized rats and MAP and HR were measured. […] The effect of nebivolol in combination with the type 5 phosphodiesterase (PDE-5) inhibitor sildenafil on hypotension and heart rate was studied in rats using the methods described above.

cGMP in rat plasma [1] = assay: Plasma cGMP in STZ-diabetic rats; assay type: in vivo, rat (Sprague-Dawley)
Experimental: Male Sprague-Dawley rats were used as a model for this study. Diabetes was induced by a single injection of streptozotocin (STZ, 60 mg/kg; i.p.) dissolved in 0.1 M citric acid/trisodic citrate buffer (pH 4-4.5) and was assessed by glycemia determination 72 h after induction. Animals were kept, with free access to food and water, for 8 weeks before experimental assays. Eight weeks after induction of diabetes, rats show altered in vivo vascular function (Angulo et al., Naunyn-Schmiedeberg's Arch Pharmacol, 358(5), 529-37, 1998) and reduced erectile responses (Angulo et al., J. Sex Med., 2, 341-346, 2005). Blood glucose concentration was determined each week and just before the experiment. Insulin levels were not determined. Plasma samples were collected, immediately frozen and stored at −80° C. until extraction for cyclic nucleotide assay. Samples were then precipitated in ethanol, centrifuged and the supernatant was dried under a nitrogen stream. Penile tissues were rapidly immersed in liquid nitrogen and were stored at −80° C. until extraction for cyclic nucleotide assay. […] After 10 days treatment, diabetic rats were anesthetized and erectile responses to cavernosal nerve electrical stimulation (CNES) were determined. After an equilibration period, the PDE-5 inhibitor sildenafil (0.3 mg/kg) or the vehicle (25% glycofurol) was intravenously administered. Forty five minutes later, erectile responses to CNES were again evaluated, and 5 min after CNES application, blood was collected for obtaining plasma and serum, and the penis was excised. Serum samples were immediately frozen until determinations of NOx and TBARS. Plasma and penile tissues were immediately frozen until determinations of cGMP.

cGMP in rat plasma [2] = assay: Plasma cGMP content by ELISA; assay type: in vivo, rat (Sprague-Dawley)
Experimental: To determine the plasma cGMP content, Sprague-Dawley rats were anesthetized with urethane (1.25 g/kg). The right carotid artery was catheterized for constant blood pressure and heart rate measurement by means of a pressure transducer connected to a PowerLab data acquisition system (ADInstruments). The left external jugular vein was catheterized for saline or drug infusion. After administering the respective treatments, rat plasma samples were collected, immediately frozen and stored at −80° C. until extraction for cyclic nucleotide assay. cGMP was determined by ELISA using a kit from Cayman Chemical Co. Plasmatic cGMP levels were determined 10 minutes after nebivolol administration.

diabetic rats = assay: Glycemia, arterial pressure and heart rate in STZ-diabetic rats after 10 days s.c. treatment; assay type: in vivo, rat (Sprague-Dawley); conditions: 3 or 10 mg/kg/day s.c. for 10 days
Experimental: Male Sprague-Dawley rats were used as a model for this study. Diabetes was induced by a single injection of streptozotocin (STZ, 60 mg/kg; i.p.) dissolved in 0.1 M citric acid/trisodic citrate buffer (pH 4-4.5) and was assessed by glycemia determination 72 h after induction. Animals were kept, with free access to food and water, for 8 weeks before experimental assays. Eight weeks after induction of diabetes, rats show reduced erectile responses (Angulo et al., Naunyn-Schmiedeberg's Arch Pharmacol, 358(5), 529-37, 1998; Angulo et al., J. Sex Med., 2, 341-346, 2005). Blood glucose concentration was determined each week and just before the experiment. Insulin levels were not determined. […] After this period of treatment, the diabetic rats were anesthetized and ICP responses to electrical stimulation were evaluated. After an equilibration period, the PDE5 inhibitor sildenafil (0.3 mg/kg) or the vehicle (25% glycofurol) was intravenously administered. Forty five minutes later, ICP responses were again determined

[3] = tested on: thiobarbituric acid reactive substances (TBARS) in rat serum; assay: Serum TBARS in STZ-diabetic rats; assay type: in vivo, rat (Sprague-Dawley); conditions: for effect on TBARS levels in diabetic rats: groups with and without sildenafil pooled
Experimental: Male Sprague-Dawley rats were used as a model for this study. Diabetes was induced by a single injection of streptozotocin (STZ, 60 mg/kg; i.p.) dissolved in 0.1 M citric acid/trisodic citrate buffer (pH 4-4.5) and was assessed by glycemia determination 72 h after induction. Animals were kept, with free access to food and water, for 8 weeks before experimental assays. Eight weeks after induction of diabetes, rats show altered in vivo vascular function (Angulo et al., Naunyn-Schmiedeberg's Arch Pharmacol, 358(5), 529-37, 1998) and reduced erectile responses (Angulo et al., J. Sex Med., 2, 341-346, 2005). Blood glucose concentration was determined each week and just before the experiment. Insulin levels were not determined. Blood was collected from the right ventricle, clotted in gel and centrifuged at 1500×g to obtain serum. Thiobarbituric acid reactive substances (TBARS) were determined by reacting thiobarbituric acid with serum samples at 70° C. for 30 min and reading absorbance at 532 nm. Serum concentrations of TBARS were determined by using malondialdehyde (MDA) as a standard. […] Results were expressed as ng/ml of MDA equivalents. […] After 10 days treatment, diabetic rats were anesthetized and erectile responses to cavernosal nerve electrical stimulation (CNES) were determined. After an equilibration period, the PDE-5 inhibitor sildenafil (0.3 mg/kg) or the vehicle (25% glycofurol) was intravenously administered. Forty five minutes later, erectile responses to CNES were again evaluated, and 5 min after CNES application, blood was collected for obtaining plasma and serum, and the penis was excised. Serum samples were immediately frozen until determinations of NOx and TBARS. Plasma and penile tissues were immediately frozen until determinations of cGMP.

[4] = tested on: human penile resistance arteries (HPRA); assay: Relaxation of human penile resistance arteries contracted with U46619 (myograph); assay type: cell-based; parameters: effect on endothelium-dependent relaxation of HPRA caused by acetylcholine / effect on sildenafil-mediated relaxation of HPRA: unit of the concentration uncertain; conditions: for effect on endothelium-dependent relaxation of HPRA caused by acetylcholine: metoprolol (1 (unit uncertain)), nebivolol (0.3 (unit uncertain))
Experimental: Specimens of human corpus cavernosum were obtained from organ donors and from impotent men at the time of penile prosthesis implantation. Tissues were placed in ice-cold M-400 solution (pH 7.4; 400 mOsm/kg, composition in w/v: 4.19% manitol, 0.2% KH2PO4, 0.97% K2HPO4.3H2O, 0.11% KCl and 0.08% NaHCO3) at the time of removal and transported to the laboratory for utilization within 16 h.
To determine the resistance of penile small arteries, helicine arteries (lumen diameter 150-400 μm) which are the terminal branches of deep penile arteries, were dissected by carefully removing the adhering trabecular tissue, and arterial ring segments (2 mm long) were subsequently mounted on two 40 μm wires on microvascular double Halpern-Mulvany myographs (J.P. Trading, Aarhus, Denmark) for isometric tension recordings. The chambers were filled with PSS continuously bubbled with 95% O2/5% CO2 mixture to maintain a pH of 7.4. […]

[5] = 3 mg/kg i.v., vs vehicle (50% glycofurol)
[6] = nebivolol 1 mg/kg i.v., pre-treatment sildenafil 0.3 mg/kg i.v.
[7] = nebivolol 3 mg/kg i.v., L-NAME 3 mg/kg, ODQ 1 mg/kg, propranolol 1 mg/kg, sildenafil 0.3 mg/kg i.v.

## OC(CNCC(O)C1CCc2cc(F)ccc2O1)C1CCc2cc(F)ccc2O1 (racemic) [nebivolol, α,α′-iminobis(methylene)bis[6-fluoro-2-chromanmethanol]]
Anesthetized rats; 1 mg/kg i.v.
  effect on blood pressure: hypotensive and bradycardic effects of moderate intensity
  effect on heart rate: hypotensive and bradycardic effects of moderate intensity
Anesthetized rats; [5]
  effect on heart rate (HR): significant reduction of heart rate
  effect on mean arterial pressure (MAP): significant hypotensive effect
cGMP in rat plasma [1]; 3 and 10 mg/kg/day for 10 days
  effect on plasma cGMP content in diabetic rats: did not result in significant modifications
cGMP in rat plasma [1]; 3 and 10 mg/kg/day for 10 days, sildenafil 0.3 mg/kg i.v.
  influence on the effects of sildenafil on plasma cGMP content in diabetic rats: did not influence
cGMP in rat plasma [2]; 3 mg/kg i.v., 10 minutes after administration, percentage of cGMP concentration before administration (FIG. 15)
  increase in plasma cGMP levels: 177±38%
cGMP in rat plasma [2]; combination of sildenafil and nebivolol
  interaction with sildenafil on plasma cGMP levels: synergistically increases plasma cGMP levels
cGMP in rat plasma [2]; nebivolol 3 mg/kg + sildenafil 0.3 mg/kg i.v.
  plasma cGMP levels after combined administration with sildenafil: marked increase of cGMP levels
cGMP in rat plasma [2]; nebivolol 1 and 3 mg/kg + sildenafil 0.3 mg/kg i.v.
  plasma cGMP levels after combining sildenafil with nebivolol, dose-dependent: significant further increase
Diabetic rats
  effect on arterial pressure in diabetic rats: Neither diabetes nor either drug treatment (nebivolol or atenolol) significantly affected
  effect on heart rate in diabetic rats: further reduced
[3]; 10 mg/kg/day for 10 days
  effect on TBARS levels in diabetic rats: significant reduction
[3]; administered for 10 days
  effect on TBARS levels in diabetic rats: trend to reduce
[4]; Homo sapiens, nebivolol 1 nM to 10 μM, read-out: EC50, endothelium-dependent vasodilation of HPRA
  EC50: 24.4 nM
[4]; Homo sapiens, nebivolol 1 nM to 10 μM, read-out: Emax, endothelium-dependent vasodilation of HPRA
  Emax: 59.1 ± 10.3%
[4]; U46619 30-100 nM
  relaxation of HPRA compared with metoprolol or atenolol: significantly more potent than those caused by metoprolol or atenolol
[4]; U46619 30-100 nM, 1 nM to 0.1 mM
  relaxation of HPRA by cumulative addition: marked relaxations
[4]; atenolol (1 (unit uncertain))
  effect on endothelium-dependent relaxation of HPRA caused by acetylcholine: not affected
[4]; nebivolol (1 (unit uncertain)), atenolol (1 (unit uncertain))
  effect on sildenafil-mediated relaxation of HPRA: able to enhance

## CCCc1nn(C)c2c(=O)[nH]c(-c3cc(S(=O)(=O)N4CCN(C)CC4)ccc3OCC)nc12 [sildenafil]
Anesthetized rats; [6]
  effect on blood pressure drop caused by nebivolol: significantly enhanced
  effect on reduction of heart rate caused by nebivolol: not modified
Anesthetized rats; [7]
  effect on heart rate reduction caused by nebivolol: did not significantly alter
  effect on hypotension caused by nebivolol: did not significantly alter
cGMP in rat plasma [1]; sildenafil 0.3 mg/kg i.v.
  effect on plasma cGMP levels in diabetic and non diabetic rats: marked increase
cGMP in rat plasma [2]; i.v.: atenolol 3 mg/kg, sildenafil 0.3 mg/kg, sodium nitroprusside 0.1 mg/kg
  effect on plasma cGMP levels: augmented cGMP up to similar levels than nebivolol
[3]; sildenafil 0.3 mg/kg i.v.
  influence on serum TBARS levels: did not significantly influence

## CC(C)NCC(O)COc1ccc(CC(N)=O)cc1 (stereo not drawn) [atenolol]
Diabetic rats
  effect on arterial pressure in diabetic rats: Neither diabetes nor either drug treatment (nebivolol or atenolol) significantly affected
  effect on heart rate in diabetic rats: further reduced
[4]; atenolol (1 (unit uncertain))
  effect on endothelium-dependent relaxation of HPRA caused by acetylcholine: not affected
